We go through 20 compounds from ChEMBL document CHEMBL1147043, “Comparative metabolism of radiolabeled muraglitazar in animals and humans by quantitative and qualitative metabolite profiling” (Drug Metab Dispos, 2007).

As a reminder, the IC50 is the point on the concentration scale where inhibition reaches its midpoint. For orientation: EC50 means the concentration giving half of the maximal effect. By AUC(0-t) is commonly meant exposure summed from dosing to a finite time, without extrapolation to infinity. As usually defined, the half-life is the time in which the quantity being followed falls by half. As a reminder, the Tmax is the time at which the peak concentration occurs. The Cmax is the highest concentration seen after dosing.

The target in data set [1] is T1, Peroxisome proliferator-activated receptor alpha (Homo sapiens) (UniProt Q07869).
T1 sequence (whole entry): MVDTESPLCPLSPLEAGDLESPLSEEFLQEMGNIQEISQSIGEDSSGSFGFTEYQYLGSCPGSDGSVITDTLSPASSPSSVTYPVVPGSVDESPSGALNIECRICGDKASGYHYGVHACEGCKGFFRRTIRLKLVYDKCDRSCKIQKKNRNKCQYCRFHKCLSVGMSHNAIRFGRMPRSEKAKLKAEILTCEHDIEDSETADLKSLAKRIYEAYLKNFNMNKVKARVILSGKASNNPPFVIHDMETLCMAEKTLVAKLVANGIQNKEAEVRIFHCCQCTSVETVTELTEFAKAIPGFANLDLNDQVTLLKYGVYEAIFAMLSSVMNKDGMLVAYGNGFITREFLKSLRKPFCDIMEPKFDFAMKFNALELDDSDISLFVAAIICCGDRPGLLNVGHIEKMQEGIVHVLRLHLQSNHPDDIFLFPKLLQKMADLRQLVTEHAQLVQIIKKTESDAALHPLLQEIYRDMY
Kind of data set: Intrinsic activity at PPAR alpha in human HEK cells at 1 uM by transactivation assay. Type of data set: cell-based. Particulars: HEK293.

Data set [2] in a line: Bile excretion of compound in bile duct-cannulated orally dosed cynomolgus monkey within 48 hrs. Type of data set: ADME, organism-based, Macaca fascicularis. Particulars: po, read-out: Activity.
Data set [3] concerns the target T2, Peroxisome proliferator-activated receptor gamma (Homo sapiens, UniProt P37231).
T2 sequence (P37231 whole entry): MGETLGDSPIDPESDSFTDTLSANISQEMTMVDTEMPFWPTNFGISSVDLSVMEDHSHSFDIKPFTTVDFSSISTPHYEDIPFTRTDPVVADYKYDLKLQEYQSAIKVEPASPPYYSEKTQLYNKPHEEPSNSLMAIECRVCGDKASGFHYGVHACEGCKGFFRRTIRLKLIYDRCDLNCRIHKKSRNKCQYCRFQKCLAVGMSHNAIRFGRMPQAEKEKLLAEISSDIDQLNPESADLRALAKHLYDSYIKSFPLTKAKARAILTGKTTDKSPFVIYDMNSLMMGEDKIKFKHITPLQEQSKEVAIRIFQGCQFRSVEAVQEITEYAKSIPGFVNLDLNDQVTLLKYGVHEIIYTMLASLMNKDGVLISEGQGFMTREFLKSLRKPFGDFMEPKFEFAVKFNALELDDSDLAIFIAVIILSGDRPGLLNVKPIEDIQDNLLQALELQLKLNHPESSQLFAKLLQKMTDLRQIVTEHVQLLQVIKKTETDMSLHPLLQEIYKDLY
Kind of data set: Binding affinity at PPAR gamma receptor.

Data set [4] addresses T1, Peroxisome proliferator-activated receptor alpha (Homo sapiens). As to the kind of experiment: (§1) Agonist activity at PPAR alpha in human HEK cells by transactivation assay. Conditions: HEK293. In kind it is functional, cell-based.
The target of data set [5] is T3, Peroxisome proliferator-activated receptor alpha (Homo sapiens, UniProt Q07869).
T3 sequence (Q07869 whole entry): T1 sequence (whole entry)
Described as §1. In kind it is functional, cell-based, HEK293.

Data set [6] deals with T3, Peroxisome proliferator-activated receptor alpha. As to the kind of experiment: Binding affinity at PPAR alpha receptor.
The nature of data set [7]: AUC (0 to T) in human at 10 mg, po after 192 hrs. Type of data set: ADME, organism-based. Also on record: dose 10 mg, time < 192 hr, route oral. Particulars: plasma.
A short description of data set [8]: Half life in Beagle dog at 2 mg/kg, po after 12 hrs. Type of data set: ADME, organism-based, Canis lupus familiaris. Also noted: dose 2 mg/kg, route oral. Particulars: in vivo.
Data set [9] in a line: Tmax in Beagle dog at 2 mg/kg, po after 12 hrs. In kind it is ADME, organism-based, Canis lupus familiaris. Conditions: in vivo. Also noted: dose 2 mg/kg, route oral.
Data set [10] is described as follows: Tmax in Sprague-Dawley rat at 10 mg/kg, po after 96 hrs. In kind it is ADME, organism-based. Also noted: dose 10 mg/kg, route oral. Conditions: in vivo.
Data set [11] is described as follows: Half life in human at 10 mg, po after 192 hrs. Type of data set: ADME, organism-based. Particulars: in vivo.
A short description of data set [12]: Cmax in Beagle dog at 2 mg/kg, po after 12 hrs. Type of data set: ADME, organism-based, Canis lupus familiaris. Also noted: dose 2 mg/kg, route oral. Particulars: in vivo.
Data set [13] can be described thus: Tmax in cynomolgus monkey at 1.9 mg/kg, po after 144 hrs. In kind it is ADME, organism-based, Macaca fascicularis. Also noted: dose 1.9 mg/kg, route oral. Conditions: in vivo.
Data set [14] in a line: Half life in cynomolgus monkey at 1.9 mg/kg, po after 144 hrs. Type of data set: ADME, organism-based, Macaca fascicularis. Particulars: in vivo. Also on record: dose 1.9 mg/kg, route oral.
Data set [15] in a line: Cmax in cynomolgus monkey at 1.9 mg/kg, po after 144 hrs. Type of data set: ADME, organism-based, Macaca fascicularis. Also noted: dose 1.9 mg/kg, route oral. Conditions: in vivo.
Data set [16] is described as follows: Cmax in Sprague-Dawley rat at 10 mg/kg, po after 96 hrs. Conditions: in vivo. Also on record: dose 10 mg/kg, route oral. In kind it is ADME, organism-based.
A short description of data set [17]: Cmax in human at 10 mg, po after 192 hrs. Conditions: in vivo. Also on record: dose 10 mg, route oral. In kind it is ADME, organism-based.
A short description of data set [18]: Tmax in human at 10 mg, po after 192 hrs. In kind it is ADME, organism-based. Conditions: in vivo.
The nature of data set [19]: AUC (0 to T) in Sprague-Dawley rat at 10 mg/kg, po after 96 hrs. Particulars: plasma. Type of data set: ADME, organism-based. Also noted: time < 96 hr, dose 10 mg/kg, route oral.
The nature of data set [20]: Half life in Sprague-Dawley rat at 10 mg/kg, po after 96 hrs. In kind it is ADME, organism-based. Conditions: in vivo. Also noted: dose 10 mg/kg, route oral.
Data set [21] is described as follows: AUC (0 to T) in Beagle dog at 2 mg/kg, po after 12 hrs. Conditions: plasma. Also noted: time < 12 hr, dose 2 mg/kg, route oral. In kind it is ADME, organism-based, Canis lupus familiaris.
Data set [22] in a line: AUC (0 to T) in cynomolgus monkey at 1.9 mg/kg, po after 144 hrs. Type of data set: ADME, organism-based, Macaca fascicularis. Also on record: time < 144 hr, dose 1.9 mg/kg, route oral. Conditions: plasma.
Data set [23] is described as follows: Bile excretion of compound in bile duct-cannulated orally dosed Sprague-Dawley rat within 24 hrs. In kind it is ADME, organism-based. Conditions: po, read-out: Activity.

On to `COc1ccc(OC(=O)N(CC(=O)O)Cc2ccc(OCCc3nc(-c4ccccc4)oc3C)cc2)cc1`, for which the Intrinsic activity in data set [1] worked out at 120%.
Take `Cc1oc(-c2ccccc2)nc1CC(O)Oc1ccc(CN(CC(=O)O)C(=O)Oc2ccc(O)cc2)cc1` (configuration not stated): the dose excreted at 48 h in [2] was under 5%.
On to `COc1ccc(OC(=O)N(CC(=O)O)Cc2ccc(OCCc3nc(-c4ccc(O)cc4)oc3CO)cc2)cc1`, for which the dose excreted at 48 h in [2] is under 5%.
On to `COc1ccc(OC(=O)N(CC(=O)O)Cc2ccc(OCCc3nc(-c4ccc(O)cc4)oc3C)cc2)cc1`, for which the Intrinsic activity in data set [1] was found to be 78%. The IC50 in [3] amounted to 2.05 µM; in data set [6], 0.099 µM. Besides, the dose excreted at 48 h in data set [2] is under 5%. Also, in data set [4], the %max is 93%. Also, in [5], the response was half-maximal at 0.26 µM (EC50).
On to `COc1ccc(OC(=O)N(CC(=O)O)Cc2ccc(OCCc3nc(-c4ccccc4)oc3C)cc2)cc1.Cl` [MURAGLITAZAR CHLORIDE], for which, in data set [7], the AUC(0-t) at 192 h turned out to be 12000 ng·h/mL. For the same compound, the half-life in data set [8] is 5.7 h; in data set [11], 35.1 h; in data set [14], 18 h; in data set [20], 10.3 h. Further, the Tmax in data set [9] is 0.5 h; in data set [10], 0.5 h; in data set [13], 1 h; in data set [18], 1 h. Also, the Cmax in [12] was found to be 800 ng/mL; in data set [15] it was 6900 ng/mL; in data set [16] it was 12800 ng/mL; in [17], 1800 ng/mL. In data set [5], this compound gave an EC50 of 0.035 µM. Further, the IC50 in data set [6] was determined as 0.188 µM. This compound showed an AUC(0-t) at 96 h in data set [19] of 101000 ng·h/mL. In [21], this compound returned an AUC(0-t) at 12 h of 1300 ng·h/mL. The same compound returned an exposure AUC(0-t) at 144 h in [22] of 41000 ng·h/mL.
On to `Cc1oc(-c2ccc(O)cc2)nc1CCOc1ccc(CN(CC(=O)O)C(=O)Oc2ccc(O)cc2)cc1`, for which, in [2], the dose excreted at 48 h was under 5%.
Consider `COc1ccc(OC(=O)N(CC(=O)O)Cc2ccc(OC(O)Cc3nc(-c4ccc(O)cc4)oc3C)cc2)cc1` (configuration not stated), for which the dose excreted at 48 h in data set [2] is under 5%.
Take `COc1ccc(OC(=O)N(CC(=O)O)Cc2ccc(OCC(O)c3nc(-c4ccccc4)oc3C)cc2)cc1` (configuration not stated): the dose excreted at 48 h in [2] was under 5%.
For `Cc1oc(-c2ccccc2)nc1C(O)COc1ccc(CN(CC(=O)O)C(=O)Oc2ccc(O)cc2)cc1` (configuration not stated), in [2], the dose excreted at 48 h was under 5%.
For the compound `Cc1oc(-c2ccccc2)nc1CCOc1ccc(CN(CC(=O)O)C(=O)Oc2ccc(O)cc2)cc1`, the dose excreted at 24 h in data set [23] was determined as 11%. Besides, the Intrinsic activity in data set [1] turned out to be 6%. Besides, the IC50 in data set [3] was over 15 µM; in [6] it was 3.74 µM. The dose excreted at 48 h in data set [2] is under 5%. In data set [4], this compound registered a %max of 78%. This compound showed an EC50 in data set [5] of 6.89 µM.
As for `Cc1oc(-c2ccc(O[C@@H]3O[C@H](C(=O)O)[C@@H](O)[C@H](O)[C@H]3O)cc2)nc1CCOc1ccc(CN(CC(=O)O)C(=O)Oc2ccc(O)cc2)cc1`, the dose excreted at 48 h in [2] is under 5%.
Regarding `COc1ccc(OC(=O)N(CC(=O)O)Cc2ccc(OCCC(=O)NC(=O)c3ccccc3)cc2)cc1`, the IC50 in data set [3] and in [6] was over 15 µM each time. Besides, the dose excreted at 48 h in [2] is under 5%. In [5], this compound gave an EC50 of over 25 µM.
In the case of `O=C(O)CN(Cc1ccc(OCCc2nc(-c3ccccc3)oc2CO)cc1)C(=O)Oc1ccc(O)cc1`, the Intrinsic activity in data set [1] stood at 2%. The 50% inhibitory concentration (IC50) in data set [3] and in data set [6] was over 15 µM in each case. For the same compound, in data set [2], the dose excreted at 48 h was under 5%. The compound also had a %max in data set [4] of 69%. For the same compound, in data set [5], a half-maximal response (EC50) required 18.1 µM.
For `COc1ccc(OC(=O)N(CC(=O)O)Cc2ccc(O)cc2)cc1`, the IC50 in data set [3] and in data set [6] was over 15 µM in each case. Moreover, in data set [2], the dose excreted at 48 h is under 5%. In [5], this compound registered an EC50 of over 25 µM.
For `COc1ccc(OC(=O)N(CC(=O)O)Cc2ccc(OC(O)Cc3nc(-c4ccccc4)oc3CO)cc2)cc1` (configuration not stated), the dose excreted at 48 h in [2] was under 5%.
As for `COc1ccc(OC(=O)N(CC(=O)O)Cc2ccc(OCC(O)c3nc(-c4ccccc4)oc3CO)cc2)cc1` (configuration not stated), the dose excreted at 48 h in [2] is under 5%.
`COc1ccc(OC(=O)N(CC(=O)O)Cc2ccc(OCCc3nc(-c4ccccc4)oc3C(=O)O)cc2)cc1`: the dose excreted at 48 h in data set [2] was under 5%.
For the compound `O=C(O)CN(Cc1ccc(O)cc1)C(=O)Oc1ccc(O)cc1`, the dose excreted at 48 h in [2] was under 5%.
As for `COc1ccc(OC(=O)N(CC(=O)O)Cc2ccc(OCCC(=O)N(C(C)=O)C(=O)c3ccccc3)cc2)cc1`, the IC50 in data set [3] and in data set [6] was over 15 µM in each case. Besides, the dose excreted at 48 h in [2] is under 5%. Besides, the concentration giving a half-maximal response (EC50) in data set [5] is over 25 µM.
For `COc1ccc(OC(=O)N(CC(=O)O)Cc2ccc(OCCc3nc(-c4ccccc4)oc3CO)cc2)cc1`, the Intrinsic activity in data set [1] came to 24%. For the same compound, the IC50 in data set [3] was over 15 µM; in data set [6], 3.09 µM. Further, the dose excreted at 48 h in [2] was under 5%. This compound also displayed a %max in data set [4] of 88%. Besides, the 50% effective concentration (EC50) in [5] amounted to 1.94 µM.
